From PubChem BioAssay AID1963837 (Molecular Pharmacology Branch, DTP, NCI, 2024)

system: 843126-344-R-J1-PDC complex spheroid viability; test: Anticancer human tumor 843126-344-R-J1-PDC patient-derived melanoma cell line growth inhibition [POLQ]; conditions: second compound 0.316 µM; first compound 0.316 µM; active compounds read low
Procedure, shortened: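 Complex spheroid viability model combining PDC tumour cells with endothelial (HUVEC) and MSC stromal cells. Novobiocin, ART-558 or RP6685 were tested singly and in combination with standard and investigational anticancer drugs. Each was titrated in half-log steps from near clinical Cmax, or from 10 microM where Cmax was unknown.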
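Also: spheroids exposed to drugs for seven days before readout.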

Row | Compound | viability, T/C [%]
1 | CCc1c2c(nc3ccc(O)cc13)-c1cc3c(c(=O)n1C2)COC(=O)[C@]3(O)CC + Cc1cccc(N(C)C(=O)C2C(O)CCN2c2nc(C)cc(C(F)(F)F)c2C#N)c1 | 53.6
2 | CCCS(=O)(=O)Nc1ccc(F)c(C(=O)c2c[nH]c3ncc(-c4ccc(Cl)cc4)cc23)c1F + COC1C(OC(N)=O)C(O)C(Oc2ccc3c(O)c(NC(=O)c4ccc(O)c(CC=C(C)C)c4)c(=O)oc3c2C)OC1(C)C | 86.3
3 | COc1cc2cc(C(=O)CCC(=O)O)sc2cc1OC + Cc1cccc(N(C)C(=O)C2C(O)CCN2c2nc(C)cc(C(F)(F)F)c2C#N)c1 | 90.1
4 | C=CCn1c(=O)c2cnc(Nc3ccc(N4CCN(C)CC4)cc3)nc2n1-c1cccc(C(C)(C)O)n1 + Nc1ccc(C#CCN(C(=O)Cc2ncc(C(F)(F)F)cc2C(F)(F)F)c2ccc(F)cc2)nn1 | 93.6
5 | Nc1ccn(C2OC(CO)C(O)C2(F)F)c(=O)n1 (stereo unspecified) + Cc1cccc(N(C)C(=O)C2C(O)CCN2c2nc(C)cc(C(F)(F)F)c2C#N)c1 | 37.4
6 | C#Cc1c(F)ccc2cc(O)cc(-c3ncc4c(N5CC6CCC(C5)N6)nc(OCC56CCCN5CC(F)C6)nc4c3F)c12 (stereo unspecified) + Cc1cccc(N(C)C(=O)C2C(O)CCN2c2nc(C)cc(C(F)(F)F)c2C#N)c1 | 91.2

same assay, conditions: second compound 0.316 µM; first compound 1 µM; active compounds read low

Row | Compound | viability, T/C [%]
7 | CCc1c2c(nc3ccc(O)cc13)-c1cc3c(c(=O)n1C2)COC(=O)[C@]3(O)CC + Nc1ccc(C#CCN(C(=O)Cc2ncc(C(F)(F)F)cc2C(F)(F)F)c2ccc(F)cc2)nn1 | 48.5
8 | CCc1c2c(nc3ccc(O)cc13)-c1cc3c(c(=O)n1C2)COC(=O)[C@]3(O)CC + Cc1cccc(N(C)C(=O)C2C(O)CCN2c2nc(C)cc(C(F)(F)F)c2C#N)c1 | 43.6
9 | CCCS(=O)(=O)Nc1ccc(F)c(C(=O)c2c[nH]c3ncc(-c4ccc(Cl)cc4)cc23)c1F + COC1C(OC(N)=O)C(O)C(Oc2ccc3c(O)c(NC(=O)c4ccc(O)c(CC=C(C)C)c4)c(=O)oc3c2C)OC1(C)C | 70.5
10 | COc1cc2cc(C(=O)CCC(=O)O)sc2cc1OC + Cc1cccc(N(C)C(=O)C2C(O)CCN2c2nc(C)cc(C(F)(F)F)c2C#N)c1 | 96.6
11 | C=CCn1c(=O)c2cnc(Nc3ccc(N4CCN(C)CC4)cc3)nc2n1-c1cccc(C(C)(C)O)n1 + Nc1ccc(C#CCN(C(=O)Cc2ncc(C(F)(F)F)cc2C(F)(F)F)c2ccc(F)cc2)nn1 | 72
12 | Nc1ccn(C2OC(CO)C(O)C2(F)F)c(=O)n1 (stereo unspecified) + Cc1cccc(N(C)C(=O)C2C(O)CCN2c2nc(C)cc(C(F)(F)F)c2C#N)c1 | 44.8
13 | C#Cc1c(F)ccc2cc(O)cc(-c3ncc4c(N5CC6CCC(C5)N6)nc(OCC56CCCN5CC(F)C6)nc4c3F)c12 (stereo unspecified) + Cc1cccc(N(C)C(=O)C2C(O)CCN2c2nc(C)cc(C(F)(F)F)c2C#N)c1 | 80.2

same assay, conditions: second compound 0.316 µM; first compound 3.16 µM; active compounds read low

Row | Compound | viability, T/C [%]
14 | CCCS(=O)(=O)Nc1ccc(F)c(C(=O)c2c[nH]c3ncc(-c4ccc(Cl)cc4)cc23)c1F + COC1C(OC(N)=O)C(O)C(Oc2ccc3c(O)c(NC(=O)c4ccc(O)c(CC=C(C)C)c4)c(=O)oc3c2C)OC1(C)C | 71.7
15 | COc1cc2cc(C(=O)CCC(=O)O)sc2cc1OC + Cc1cccc(N(C)C(=O)C2C(O)CCN2c2nc(C)cc(C(F)(F)F)c2C#N)c1 | 88.8
16 | Nc1ccn(C2OC(CO)C(O)C2(F)F)c(=O)n1 (stereo unspecified) + Cc1cccc(N(C)C(=O)C2C(O)CCN2c2nc(C)cc(C(F)(F)F)c2C#N)c1 | 43.2
17 | C#Cc1c(F)ccc2cc(O)cc(-c3ncc4c(N5CC6CCC(C5)N6)nc(OCC56CCCN5CC(F)C6)nc4c3F)c12 (stereo unspecified) + Cc1cccc(N(C)C(=O)C2C(O)CCN2c2nc(C)cc(C(F)(F)F)c2C#N)c1 | 75.4

same assay, conditions: second compound 0.316 µM; first compound 10 µM; active compounds read low

Row | Compound | viability, T/C [%]
18 | CCCS(=O)(=O)Nc1ccc(F)c(C(=O)c2c[nH]c3ncc(-c4ccc(Cl)cc4)cc23)c1F + COC1C(OC(N)=O)C(O)C(Oc2ccc3c(O)c(NC(=O)c4ccc(O)c(CC=C(C)C)c4)c(=O)oc3c2C)OC1(C)C | 70.8
19 | COc1cc2cc(C(=O)CCC(=O)O)sc2cc1OC + Cc1cccc(N(C)C(=O)C2C(O)CCN2c2nc(C)cc(C(F)(F)F)c2C#N)c1 | 89
20 | Nc1ccn(C2OC(CO)C(O)C2(F)F)c(=O)n1 (stereo unspecified) + Cc1cccc(N(C)C(=O)C2C(O)CCN2c2nc(C)cc(C(F)(F)F)c2C#N)c1 | 38.3
21 | C#Cc1c(F)ccc2cc(O)cc(-c3ncc4c(N5CC6CCC(C5)N6)nc(OCC56CCCN5CC(F)C6)nc4c3F)c12 (stereo unspecified) + Cc1cccc(N(C)C(=O)C2C(O)CCN2c2nc(C)cc(C(F)(F)F)c2C#N)c1 | 77.4

same assay, conditions: second compound 1 µM; first compound 0.00316 µM; active compounds read low

Row | Compound | viability, T/C [%]
22 | CCc1c2c(nc3ccc(O)cc13)-c1cc3c(c(=O)n1C2)COC(=O)[C@]3(O)CC + Nc1ccc(C#CCN(C(=O)Cc2ncc(C(F)(F)F)cc2C(F)(F)F)c2ccc(F)cc2)nn1 | 75.3
23 | CCc1c2c(nc3ccc(O)cc13)-c1cc3c(c(=O)n1C2)COC(=O)[C@]3(O)CC + Cc1cccc(N(C)C(=O)C2C(O)CCN2c2nc(C)cc(C(F)(F)F)c2C#N)c1 | 66.6
24 | C=CCn1c(=O)c2cnc(Nc3ccc(N4CCN(C)CC4)cc3)nc2n1-c1cccc(C(C)(C)O)n1 + Nc1ccc(C#CCN(C(=O)Cc2ncc(C(F)(F)F)cc2C(F)(F)F)c2ccc(F)cc2)nn1 | 106

same assay, conditions: second compound 1 µM; first compound 0.01 µM; active compounds read low

Row | Compound | viability, T/C [%]
25 | CCc1c2c(nc3ccc(O)cc13)-c1cc3c(c(=O)n1C2)COC(=O)[C@]3(O)CC + Nc1ccc(C#CCN(C(=O)Cc2ncc(C(F)(F)F)cc2C(F)(F)F)c2ccc(F)cc2)nn1 | 46.9
26 | CCc1c2c(nc3ccc(O)cc13)-c1cc3c(c(=O)n1C2)COC(=O)[C@]3(O)CC + Cc1cccc(N(C)C(=O)C2C(O)CCN2c2nc(C)cc(C(F)(F)F)c2C#N)c1 | 58.5
27 | C=CCn1c(=O)c2cnc(Nc3ccc(N4CCN(C)CC4)cc3)nc2n1-c1cccc(C(C)(C)O)n1 + Nc1ccc(C#CCN(C(=O)Cc2ncc(C(F)(F)F)cc2C(F)(F)F)c2ccc(F)cc2)nn1 | 80.8

same assay, conditions: second compound 1 µM; first compound 0.0316 µM; active compounds read low

Row | Compound | viability, T/C [%]
28 | CCc1c2c(nc3ccc(O)cc13)-c1cc3c(c(=O)n1C2)COC(=O)[C@]3(O)CC + Nc1ccc(C#CCN(C(=O)Cc2ncc(C(F)(F)F)cc2C(F)(F)F)c2ccc(F)cc2)nn1 | 61.3
29 | CCc1c2c(nc3ccc(O)cc13)-c1cc3c(c(=O)n1C2)COC(=O)[C@]3(O)CC + Cc1cccc(N(C)C(=O)C2C(O)CCN2c2nc(C)cc(C(F)(F)F)c2C#N)c1 | 55.1
30 | CCCS(=O)(=O)Nc1ccc(F)c(C(=O)c2c[nH]c3ncc(-c4ccc(Cl)cc4)cc23)c1F + COC1C(OC(N)=O)C(O)C(Oc2ccc3c(O)c(NC(=O)c4ccc(O)c(CC=C(C)C)c4)c(=O)oc3c2C)OC1(C)C | 82.2
31 | COc1cc2cc(C(=O)CCC(=O)O)sc2cc1OC + Cc1cccc(N(C)C(=O)C2C(O)CCN2c2nc(C)cc(C(F)(F)F)c2C#N)c1 | 81.7
32 | C=CCn1c(=O)c2cnc(Nc3ccc(N4CCN(C)CC4)cc3)nc2n1-c1cccc(C(C)(C)O)n1 + Nc1ccc(C#CCN(C(=O)Cc2ncc(C(F)(F)F)cc2C(F)(F)F)c2ccc(F)cc2)nn1 | 87.7
33 | Nc1ccn(C2OC(CO)C(O)C2(F)F)c(=O)n1 (stereo unspecified) + Cc1cccc(N(C)C(=O)C2C(O)CCN2c2nc(C)cc(C(F)(F)F)c2C#N)c1 | 37.9
34 | C#Cc1c(F)ccc2cc(O)cc(-c3ncc4c(N5CC6CCC(C5)N6)nc(OCC56CCCN5CC(F)C6)nc4c3F)c12 (stereo unspecified) + Cc1cccc(N(C)C(=O)C2C(O)CCN2c2nc(C)cc(C(F)(F)F)c2C#N)c1 | 77.1

same assay, conditions: second compound 1 µM; first compound 0.1 µM; active compounds read low

Row | Compound | viability, T/C [%]
35 | CCc1c2c(nc3ccc(O)cc13)-c1cc3c(c(=O)n1C2)COC(=O)[C@]3(O)CC + Nc1ccc(C#CCN(C(=O)Cc2ncc(C(F)(F)F)cc2C(F)(F)F)c2ccc(F)cc2)nn1 | 62.8
36 | CCc1c2c(nc3ccc(O)cc13)-c1cc3c(c(=O)n1C2)COC(=O)[C@]3(O)CC + Cc1cccc(N(C)C(=O)C2C(O)CCN2c2nc(C)cc(C(F)(F)F)c2C#N)c1 | 60.9
